# US20030166715A1, “Use of vitaletheine modulators in the prophylaxis and treatment of disease” (priority 1990, published 2003)
# Assays:
# [1] = test system: human BFU-E; assay: Modulation of erythropoiesis: colony formation from human BFU-E in plasma clot culture; assay type: cell-based; conditions: 18 h initial incubation with vitalethine; compared with levels initially containing erythropoietin (FIG. 3a)
# Excerpt: (§1) Colony formation from the early murine progenitors not exposed to vitalethine, and either initially exposed to or initially deprived of erythropoietin are represented by upper and lower triangles, respectively. […] Bars are standard error of the mean.
# (§2) Human bone marrow cells were obtained as surplus from experiments performed on material aspirated from normal volunteers with IRB approval and informed written consent. Peripheral blood cells were obtained from commercially purchased buffy coats or surgical waste (umbilical cord blood). Mouse bone marrow was flushed from femurs and obtained as surplus from experiments performed on C57B1/6 mice with animal committee approval. Human light density cells were separated by centrifugation over Ficoll-daitrizoate (SG 1.075) and depleted of adherent cells by incubation on serum coated plastic. Mouse cells were used without further fractionation. […] One unit per ml of erythropoietin and medium without added factors served as positive and negative controls. Initial incubations were carried out for 18 hours at 37° . […]
# [2] = test system: CFU-E progenitors; assay: Modulation of erythropoiesis: colony formation from CFU-E progenitors in plasma clot culture; assay type: cell-based, murine; conditions: depending upon concentration (FIG. 3a)
# Excerpt: as §1, §2
# [3] = test system: Cloudman S-91 murine melanoma cells; assay: Treatment of murine Cloudman S-91 melanoma in mice, tumor volume; assay type: in vivo, mouse
# Method: This regimen is predicated on the observation that certain enzymes thought to be responsive to these compounds, and which may pay a role in the reported results, are induced 48 hours after chemical stimulation. […] Data presented is calculated from measured tumor diameters, including mice with no tumor. Error bars indicate standard error of the mean.
# Cloudman S-91 murine melanoma cells (American Type Culture Collection #53.1, Clone M-3) from a (C X DBA)F1 male mouse were grown in 75 ml flasks (Corning Glass Works, Corning, N.Y., USA) containing Ham's F12 medium supplemented with 15% fetal bovine serum, penicillin (100 U/ml), and streptomycin (100 μg/ml), all commercially available from Sigma Chemical Company, St. Louis, Mo., USA. Cultures were incubated at 37° C. under 5.5% carbon dioxide initially at 6×10^6 cells per ml for two days, with a medium change after one day. Cultures were then trypsinized, split into two fresh flasks at one half the cell density, above, and maintained for one week prior to injection in female (DBA X BALB c) mice (CD2F1/Hsd from Harlan Sprague Dawley, Inc., Indianapolis, Ind., USA). For inoculation, cells were first trypsinized, washed 3 times in phosphate buffered saline, and diluted to 1×10^5 cells/100 μl phosphate buffered saline prior to subcutaneous injection in the flank.
# The compounds were dissolved in water, filtered through an appropriate sterilizing filter (0.22 μm non-pyrogenic, μ Star LB™ from Costar®, Cambridge, Mass., USA), diluted to the desired concentration in sterile, physiological saline (0.1 ml), and injected intraperitoneally with a 27 gauge, ⅜ inch allergy syringe (Becton Dickinson, Rutherford, N.J., USA); by gently lifting the skin on the abdomen of supine mice and injecting horizontally, puncture of peritoneal organs is avoided, thereby minimizing trauma to the mice.
# [4] = test system: CFU-E and BFU-E; assay: Modulation of erythropoiesis: stimulation of colony formation synergistically with erythropoietin (FIG. 3a/3b); assay type: cell-based
# Excerpt: as §1, §2
smiles,measurement,setting,value
"O=C(O)NCCC(=O)NCCSSCCNC(=O)CCNC(=O)O [vitalethine, N,N′-(dithiodi-2,1-ethanediyl)-bis-(3-carboxyamino-propan-amide)]",colony formation from human BFU-E initially deprived of erythropoietin,[1],increased
same,erythropoiesis from the CFU-E progenitors,[2],either enhances or minimizes erythropoiesis
same,average tumor volume,[3]; 100 pg/kg mouse (FIG. 1b),diminishes average tumor volume substantially
same,diminution of tumor volume compared to saline controls,"[3]; 10 femtogram/kg mouse intraperitoneally three times per week, beginning second day after tumor inoculation",~70%
same,average tumor volume,[3]; 10 fg/kg mouse (FIG. 1a),diminishes average tumor volume substantially
same,concentration necessary for a similar response (stimulation of colony formation),[4],about 10 pg/ml
